Source: US12364733B1, “Method for treating septic shock” (Inotrem, priority 2018, dated 2025)

Test system: septic shock patients
Test: Phase IIa clinical trial with nangibotide in septic shock patients: SOFA score evolution
Type: in vivo, human
Description: This was a randomized, double-blind, two-stage, placebo-controlled study. As described in FIG. 7, the study was composed of 2 stages with a similar treatment regimen, in which 0.3, 1.0 or 3.0 mg/kg/h of nangibotide (corresponding to peptide LR12, having an amino acid sequence as set forth in SEQ ID NO: 9, also known as motrem) was tested versus placebo. All patients with a diagnosis of septic shock were considered for study participation. All potential study patients underwent standard care management procedures. Patients with evidence of septic shock according to the Sepsis-3 definition (Singer et al, JAMA 2016) were considered for inclusion (i.e., patients suffering from sepsis and having (i) persisting hypotension requiring vasopressors to maintain their mean arterial pressure ≥65 mm Hg and (ii) a serum lactate level >2 mmol/L (18 mg/dL) despite adequate volume resuscitation).
After screening for eligibility, patients were randomized to one of the treatment arms. Then, they received either a 5 mg/kg loading dose of nangibotide over 15 minutes followed by a continuous intravenous (i.v.) infusion of nangibotide or a matching placebo on top of standard of care. Treatment with study drug was initiated as early as possible, but no later than 24 hours after the onset of septic shock, defined by the start of vasopressor therapy. Patients were treated until 12 (±2) hours after the resolution of their septic shock (defined as vasopressor withdrawal) with a maximum treatment duration of 5 days (120 hours).
Adverse events (AEs) were coded using the MedDRA dictionary version 18.1. Treatment-emergent adverse events (TEAEs) were summarized and listed. Analysis was performed in 49 septic shock patients. The demographic and baseline characteristics were summarized in a descriptive fashion within each population: categorical variables were summarized by contingency tables (frequencies and percentages). sTREM-1 levels at day 1 were also described (mean, standard deviation, standard error, median, quartiles and range, minimum and maximum values). Mortality rates were reported by frequency and percentage. For continuous endpoints, i.e., the sequential organ failure assessment (SOFA), missing data were imputed using LOCF (Last Observation Carry-Forward). For time-to-event analyses, i.e., duration of invasive mechanical ventilation (IMV), duration of continuous renal replacement therapy (CRRT), survival, censored data techniques were utilized. In addition, a sensitivity analysis of time to event data (except survival) was performed using censoring at maximum limit for the corresponding observation period (i.e., either day 28 or day 90). […] The following comparisons were made: each nangibotide dose arm to placebo, all nangibotide doses combined versus placebo, and dose-response using an ordinal trend test. Exploratory composite endpoint: incidence (number and proportion) of patients alive at day 28 and free of vasopressor, free of IMV and free of CRRT were summarized by treatment and compared between treatments with a Fisher's exact test. For pharmacodynamic markers, log transformed data were represented as percentage change from baseline at day 5 or End of Infusion (EOI) if end of infusion was stopped before day 5. […] “All nangibotide” refers to analyses obtained by pooling data from 0.3, 1 and 3 mg/kg/h nangibotide-treated groups.

[1] = patients with low sTREM-1 at baseline (below median 433 pg/mL), Day 3, 3.0 mg/kg/h
[2] = patients with low sTREM-1 at baseline (below median 433 pg/mL), Day 3, all nangibotide doses pooled
[3] = patients with low sTREM-1 at baseline (below median 433 pg/mL), Day 4, 0.3 mg/kg/h
[4] = patients with low sTREM-1 at baseline (below median 433 pg/mL), Day 4, 1.0 mg/kg/h
[5] = patients with low sTREM-1 at baseline (below median 433 pg/mL), Day 4, 3.0 mg/kg/h
[6] = patients with low sTREM-1 at baseline (below median 433 pg/mL), Day 4, all nangibotide doses pooled
[7] = patients with low sTREM-1 at baseline (below median 433 pg/mL), Day 5, 1.0 mg/kg/h
[8] = whole population, Day 1, 0.3 mg/kg/h
[9] = whole population, Day 1, 1.0 mg/kg/h
[10] = whole population, Day 1, 3.0 mg/kg/h
[11] = whole population, Day 1, all nangibotide doses pooled
[12] = whole population, Day 2, 0.3 mg/kg/h
[13] = whole population, Day 2, 1.0 mg/kg/h
[14] = whole population, Day 2, 3.0 mg/kg/h
[15] = whole population, Day 2, all nangibotide doses pooled
[16] = whole population, Day 3, 0.3 mg/kg/h
[17] = whole population, Day 3, 1.0 mg/kg/h
[18] = whole population, Day 3, 3.0 mg/kg/h
[19] = whole population, Day 3, all nangibotide doses pooled
[20] = whole population, Day 4, 0.3 mg/kg/h
[21] = whole population, Day 4, 1.0 mg/kg/h
[22] = whole population, Day 4, 3.0 mg/kg/h
[23] = whole population, Day 4, all nangibotide doses pooled
[24] = whole population, Day 5, 1.0 mg/kg/h

## nangibotide (LQEEDAGEYGCM; TLT-1 peptide)
[1]
  SOFA score evolution (change versus baseline, LOCF), LSMean (SE): −2.10 (1.35)
  SOFA score, estimated difference (SE) vs. placebo: 0.01 (1.69)
[2]
  SOFA score evolution (change versus baseline, LOCF), LSMean (SE): −2.10 (0.67)
  SOFA score, estimated difference (SE) vs. placebo: 0.02 (1.23)
[3]
  SOFA score evolution (change versus baseline, LOCF), LSMean (SE): −2.70 (0.94)
  SOFA score, estimated difference (SE) vs. placebo: −0.57 (1.32)
[4]
  SOFA score evolution (change versus baseline, LOCF), LSMean (SE): −1.79 (1.03)
  SOFA score, estimated difference (SE) vs. placebo: 0.34 (1.41)
[5]
  SOFA score evolution (change versus baseline, LOCF), LSMean (SE): −2.62 (1.24)
  SOFA score, estimated difference (SE) vs. placebo: −0.49 (1.55)
[6]
  SOFA score evolution (change versus baseline, LOCF), LSMean (SE): −2.37 (0.62)
  SOFA score, estimated difference (SE) vs. placebo: −0.24 (1.13)
Patients with low sTREM-1 at baseline (below median 433 pg/mL), Day 5, 0.3 mg/kg/h
  SOFA score evolution (change versus baseline, LOCF), LSMean (SE): −2.71 (1.10)
Patients with low sTREM-1 at baseline (below median 433 pg/mL), Day 5, 0.3 mg/kg/h, 0.3 mg/kg
  SOFA score, estimated difference (SE) vs. placebo: −0.71 (1.56)
Patients with low sTREM-1 at baseline (below median 433 pg/mL), Day 5, 0.3 mg/kg/h, listed as nangibotide, 0.3 mg/kg
  SOFA score, estimated difference (SE) vs. placebo: −0.71
[7]
  SOFA score evolution (change versus baseline, LOCF), LSMean (SE): −1.93 (1.21)
  SOFA score, estimated difference (SE) vs. placebo: 0.06 (1.65)
Patients with low sTREM-1 at baseline (below median 433 pg/mL), Day 5, 3.0 mg/kg/h
  SOFA score evolution (change versus baseline, LOCF), LSMean (SE): −1.87 (1.46)
Patients with low sTREM-1 at baseline (below median 433 pg/mL), Day 5, 3.0 mg/kg/h, 3 mg/kg
  SOFA score, estimated difference (SE) vs. placebo: 0.12 (−1.82)
Patients with low sTREM-1 at baseline (below median 433 pg/mL), Day 5, 3.0 mg/kg/h, listed as nangibotide, 3 mg/kg
  SOFA score, estimated difference (SE) vs. placebo: 0.12
Patients with low sTREM-1 at baseline (below median 433 pg/mL), Day 5, all nangibotide doses pooled
  SOFA score evolution (change versus baseline, LOCF), LSMean (SE): −2.17 (0.73)
[8]
  SOFA score evolution (change versus baseline, LOCF), LSMean (SE): −0.65 (0.52)
  SOFA score, estimated difference (SE) vs. placebo: 0.26 (0.75)
[9]
  SOFA score evolution (change versus baseline, LOCF), LSMean (SE): −0.39 (0.54)
  SOFA score, estimated difference (SE) vs. placebo: 0.53 (0.77)
[10]
  SOFA score evolution (change versus baseline, LOCF), LSMean (SE): −0.33 (0.54)
  SOFA score, estimated difference (SE) vs. placebo: 0.59 (0.76)
[11]
  SOFA score evolution (change versus baseline, LOCF), LSMean (SE): −0.45 (0.31)
  SOFA score, estimated difference (SE) vs. placebo: 0.46 (0.62)
[12]
  SOFA score evolution (change versus baseline, LOCF), LSMean (SE): −2.27 (0.63)
  SOFA score, estimated difference (SE) vs. placebo: −0.94 (0.91)
[13]
  SOFA score evolution (change versus baseline, LOCF), LSMean (SE): −1.97 (0.65)
  SOFA score, estimated difference (SE) vs. placebo: −0.64 (0.92)
[14]
  SOFA score evolution (change versus baseline, LOCF), LSMean (SE): −0.91 (0.65)
  SOFA score, estimated difference (SE) vs. placebo: 0.42 (0.92)
[15]
  SOFA score evolution (change versus baseline, LOCF), LSMean (SE): −1.72 (0.37)
  SOFA score, estimated difference (SE) vs. placebo: −0.38 (0.75)
[16]
  SOFA score evolution (change versus baseline, LOCF), LSMean (SE): −2.67 (0.68)
  SOFA score, estimated difference (SE) vs. placebo: −1.42 (0.98)
[17]
  SOFA score evolution (change versus baseline, LOCF), LSMean (SE): −1.87 (0.71)
  SOFA score, estimated difference (SE) vs. placebo: −0.62 (1.00)
[18]
  SOFA score evolution (change versus baseline, LOCF), LSMean (SE): −0.91 (0.70)
  SOFA score, estimated difference (SE) vs. placebo: 0.34 (1.00)
[19]
  SOFA score evolution (change versus baseline, LOCF), LSMean (SE): −1.82 (0.40)
  SOFA score, estimated difference (SE) vs. placebo: −0.57 (0.81)
[20]
  SOFA score evolution (change versus baseline, LOCF), LSMean (SE): −2.91 (0.67)
  SOFA score, estimated difference (SE) vs. placebo: −1.50 (0.96)
[21]
  SOFA score evolution (change versus baseline, LOCF), LSMean (SE): −1.95 (0.70)
  SOFA score, estimated difference (SE) vs. placebo: −0.53 (0.98)
[22]
  SOFA score evolution (change versus baseline, LOCF), LSMean (SE): −1.16 (0.69)
  SOFA score, estimated difference (SE) vs. placebo: 0.26 (0.98)
[23]
  SOFA score evolution (change versus baseline, LOCF), LSMean (SE): −2.00 (0.40)
  SOFA score, estimated difference (SE) vs. placebo: −0.59 (0.80)
Whole population, Day 5, 0.3 mg/kg/h
  SOFA score evolution (change versus baseline, LOCF), LSMean (SE): −2.91 (0.71)
Whole population, Day 5, 0.3 mg/kg/h, 0.3 mg/kg
  SOFA score, estimated difference (SE) vs. placebo: −1.66 (1.03)
Whole population, Day 5, 0.3 mg/kg/h, listed as nangibotide, 0.3 mg/kg
  SOFA score, estimated difference (SE) vs. placebo: −1.66
[24]
  SOFA score evolution (change versus baseline, LOCF), LSMean (SE): −2.03 (0.74)
  SOFA score, estimated difference (SE) vs. placebo: −0.78 (1.04)
Whole population, Day 5, 3.0 mg/kg/h
  SOFA score evolution (change versus baseline, LOCF), LSMean (SE): −0.90 (0.74)
Whole population, Day 5, 3.0 mg/kg/h, 3 mg/kg
  SOFA score, estimated difference (SE) vs. placebo: 0.34 (1.04)
Whole population, Day 5, 3.0 mg/kg/h, listed as nangibotide, 3 mg/kg
  SOFA score, estimated difference (SE) vs. placebo: 0.34
Whole population, Day 5, all nangibotide doses pooled
  SOFA score evolution (change versus baseline, LOCF), LSMean (SE): −1.95 (0.42)
Whole population, no statistically significant differences
  SOFA score decrease during the first 5 days vs. placebo: consistent numerical trend in favor of nangibotide
